Where two headings read alike, the source gives them in different places. Each block holds one compound with its values, some of them ahead of it. Numbered stars: 1 amine (or outer) side, 2 acyl side, 3 side chain; on linkers, the order of the positions; unused ones are H or OH. Square brackets hold non-standard residues; d marks the D form. Peptide text beside a SMILES is read from it. 2Furoyl(5-aminomethyl) = O=C(c1ccc(CN[*:1])o1)[*:2]; Aib = CC(C)(N)C(=O)O
How the values were obtained:
[1] = biological target: T1, NEP 24.11 (Homo sapiens, UniProt P08473); assay: NEP 24.11 resistant (degradation) assay; format: in vitro ADME; conditions: pH 7.4; for metabolised at 54 h, 20 μM: isolated enzyme neprilysin
T1 construct: purchased Calbiochem
Procedure: The aliquots were analyzed for the amount of undegraded peptide concentration at different time intervals using RP-HPLC by peak area integration. T1/2 of each peptide was determined from the graph plotted between peak area of undegraded peptide vs time.

[2] = biological target: T2, DPP-IV (Homo sapiens, UniProt P27487); assay: DPP-IV resistant assay; format: in vitro ADME
T2 construct: purchased Sigma-Aldrich
Procedure: 20 μM of peptides of the present invention (Sequence IDs—01, 02, 03, 04, 05, 06, 11, 12 and 13) were incubated with 60 mU/2 ml of DPP-IV (Sigma-Aldrich) enzyme at room temperature (22-24° C.) in 20 mM Tris HCl buffer, pH 8.0. The aliquots were analyzed for the amount of undegraded peptide concentration at different time intervals by RP-HPLC. The peak area integration was used to determine the amount of undegraded peptide (U.S. Pat. No. 7,067,488). T1/2 of each peptide was determined from the graph plotted between peak area of undegraded peptide vs. time. The peak area of DPP-IV untreated peptide in above mentioned buffer condition of same concentration was considered as time zero. […]

T2 sequence (P27487 whole entry, species assumed): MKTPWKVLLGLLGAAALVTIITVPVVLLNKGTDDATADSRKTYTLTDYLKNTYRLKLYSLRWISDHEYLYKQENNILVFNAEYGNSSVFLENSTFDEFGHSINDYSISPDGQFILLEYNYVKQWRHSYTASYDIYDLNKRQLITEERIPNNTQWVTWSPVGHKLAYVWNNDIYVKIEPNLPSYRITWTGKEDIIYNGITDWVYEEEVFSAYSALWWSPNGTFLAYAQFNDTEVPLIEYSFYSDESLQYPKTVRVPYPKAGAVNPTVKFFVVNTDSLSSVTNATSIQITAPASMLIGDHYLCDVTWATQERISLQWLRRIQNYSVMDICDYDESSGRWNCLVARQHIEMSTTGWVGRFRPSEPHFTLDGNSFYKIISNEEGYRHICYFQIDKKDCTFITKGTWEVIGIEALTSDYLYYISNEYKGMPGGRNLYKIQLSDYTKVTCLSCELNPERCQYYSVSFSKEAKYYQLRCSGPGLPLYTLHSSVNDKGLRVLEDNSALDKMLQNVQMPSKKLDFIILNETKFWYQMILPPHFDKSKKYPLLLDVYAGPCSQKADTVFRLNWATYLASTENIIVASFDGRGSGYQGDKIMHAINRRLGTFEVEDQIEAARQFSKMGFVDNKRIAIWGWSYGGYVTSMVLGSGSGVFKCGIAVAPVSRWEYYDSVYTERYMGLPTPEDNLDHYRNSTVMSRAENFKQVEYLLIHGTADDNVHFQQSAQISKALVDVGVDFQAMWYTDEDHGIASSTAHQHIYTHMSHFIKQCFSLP
T1 sequence (P08473 whole entry): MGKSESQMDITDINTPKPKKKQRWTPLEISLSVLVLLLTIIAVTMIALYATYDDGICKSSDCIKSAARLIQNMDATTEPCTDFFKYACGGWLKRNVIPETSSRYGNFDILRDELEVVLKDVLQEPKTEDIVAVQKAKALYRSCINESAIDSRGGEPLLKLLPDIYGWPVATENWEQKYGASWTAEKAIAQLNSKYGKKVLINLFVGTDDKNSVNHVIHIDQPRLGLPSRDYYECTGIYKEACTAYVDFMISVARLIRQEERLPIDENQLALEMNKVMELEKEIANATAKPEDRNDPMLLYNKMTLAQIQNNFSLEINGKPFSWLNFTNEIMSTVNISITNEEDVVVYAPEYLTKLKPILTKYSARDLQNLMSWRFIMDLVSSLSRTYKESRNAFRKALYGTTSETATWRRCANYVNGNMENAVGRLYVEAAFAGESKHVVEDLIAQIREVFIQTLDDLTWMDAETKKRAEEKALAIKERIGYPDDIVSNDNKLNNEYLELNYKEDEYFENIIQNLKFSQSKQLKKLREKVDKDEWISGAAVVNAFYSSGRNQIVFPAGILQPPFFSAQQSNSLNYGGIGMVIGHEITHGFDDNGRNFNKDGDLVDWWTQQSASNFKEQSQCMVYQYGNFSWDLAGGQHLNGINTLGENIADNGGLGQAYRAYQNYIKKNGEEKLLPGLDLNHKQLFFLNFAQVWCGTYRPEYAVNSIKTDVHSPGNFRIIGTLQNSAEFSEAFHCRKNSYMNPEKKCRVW

SMILES: CC[C@H](C)[C@H](NC(=O)[C@H](Cc1ccccc1)NC(=O)[C@H](CCC(=O)O)NC(=O)[C@H](CCCCN)NC(=O)[C@H](C)NC(=O)[C@H](C)NC(=O)[C@H](CCC(N)=O)NC(=O)CNC(=O)[C@H](CCC(=O)O)NC(=O)[C@H](CC(C)C)NC(=O)[C@H](Cc1ccc(O)cc1)NC(=O)[C@H](CO)NC(=O)[C@H](CO)NC(=O)[C@@H](NC(=O)[C@H](CC(=O)O)NC(=O)[C@H](CO)NC(=O)[C@@H](NC(=O)[C@H](Cc1ccccc1)NC(=O)[C@@H](NC(=O)CNC(=O)[C@H](CCC(=O)O)NC(=O)[C@H](C)NC(=O)[C@@H](N)Cc1c[nH]cn1)[C@@H](C)O)[C@@H](C)O)C(C)C)C(=O)N[C@@H](C)C(=O)N[C@@H](Cc1c[nH]c2ccccc12)C(=O)N[C@@H](CC(C)C)C(=O)N[C@H](C(=O)N[C@@H](CCCCN)C(=O)NCC(=O)N[C@@H](CCCNC(=N)N)C(N)=O)C(C)C [GLP-1(7-36) parent, GLP-1(7-36), reference compound]
metabolised at 54 h, 20 μM ([1]; NEP 24.11, after 54 hrs, read-out: % Degradation (after 54 hrs)): 98.3%

Percentage degradation in hrs [2]: 12.87% | half-life at 20 μM ([2]; pH 8): > 24 h | half-life at 20 μM ([1]; buffer): > 56 h | metabolised at 54 h, 20 μM [1]: 26%
SMILES: CC[C@H](C)[C@H](NC(=O)[C@H](Cc1ccccc1)NC(=O)[C@H](CCC(=O)O)NC(=O)[C@H](CCCCN)NC(=O)[C@H](C)NC(=O)[C@H](C)NC(=O)[C@H](CCC(N)=O)NC(=O)CNC(=O)[C@H](CCC(=O)O)NC(=O)[C@H](CC(C)C)NC(=O)[C@H](Cc1ccc(O)cc1)NC(=O)[C@H](CO)NC(=O)[C@H](CO)NC(=O)C(C)(C)NC(=O)[C@H](CC(=O)O)NC(=O)[C@H](CO)NC(=O)[C@@H](NC(=O)[C@H](Cc1ccccc1)NC(=O)[C@@H](NC(=O)CNC(=O)[C@H](CCC(=O)O)NC(=O)c1ccc(CNC(=O)[C@@H](N)Cc2c[nH]cn2)o1)[C@@H](C)O)[C@@H](C)O)C(=O)NC(C)(C)C(=O)N[C@@H](Cc1c[nH]c2ccccc12)C(=O)N[C@@H](CC(C)C)C(=O)N[C@H](C(=O)N[C@@H](CCCCN)C(=O)NCC(=O)N[C@@H](CCCNC(=N)N)C(N)=O)C(C)C [Seq ID No. 04] (H-H[2Furoyl(5-aminomethyl)]EGTFTSD[Aib]SSYLEGQAAKEFI[Aib]WLVKGR-NH2; N-terminus assumed)

SMILES: CC[C@H](C)[C@H](NC(=O)[C@H](Cc1ccccc1)NC(=O)[C@H](CCC(=O)O)NC(=O)[C@H](CCCCN)NC(=O)[C@H](C)NC(=O)[C@H](C)NC(=O)[C@H](CCC(N)=O)NC(=O)CNC(=O)[C@H](CCC(=O)O)NC(=O)[C@H](CC(C)C)NC(=O)[C@H](Cc1ccc(O)cc1)NC(=O)[C@H](CO)NC(=O)[C@H](CO)NC(=O)[C@@H](NC(=O)[C@H](CC(=O)O)NC(=O)[C@H](CO)NC(=O)[C@@H](NC(=O)[C@H](Cc1ccccc1)NC(=O)[C@@H](NC(=O)CNC(=O)[C@H](CCC(=O)O)NC(=O)c1ccc(CNC(=O)[C@@H](N)Cc2c[nH]cn2)o1)[C@@H](C)O)[C@@H](C)O)C(C)C)C(=O)N[C@@H](C)C(=O)N[C@@H](Cc1c[nH]c2ccccc12)C(=O)N[C@@H](CC(C)C)C(=O)N[C@H](C(=O)N[C@@H](CCCCN)C(=O)NC(C)(C)C(=O)N[C@@H](CCCNC(=N)N)C(N)=O)C(C)C [Seq ID No. 11]
half-life at 20 μM ([2]; 20 μM peptide, 60 mU/2 ml DPP-IV, room temperature (22-24° C.), 20 mM Tris HCl pH 8.0, RP-HPLC, read-out: T1/2 in Hrs): > 24 h | Percentage degradation in hrs ([2]; DPP-IV, in 24 hrs): 20% | half life against DPP-IV compared with parent GLP-1 molecules ([2]; versus GLP-1(7-37) parent and GLP-1(7-36) parent): better half lives than the parent GLP-1 molecules

From patent US20110269680A1 (PANACEA BIOTEC LIMITED, priority 2008, published 2011)
